Legend:
[1] = target: T1, ACSS2 (Mus musculus, UniProt Q9QXG4); assay: Incorporation of alcohol-derived heavy acetyl groups into brain histone acetylation (Example 6); format: in vivo; conditions: mice treated with ACSS2 inhibitor
T1 construct: from tissue; host or cells: brain (hippocampus) of living mice
Description: To investigate the direct role of ACSS2 in alcohol-dependent acetylation in the brain, mice are treated with an ACSS2 inhibitor, ADG-204, ADG-205, ADG-206, or ADG-207. […] In contrast, in control mice, vHPC incorporation of the heavy label is not affected. Thus, acetate derived from hepatic alcohol metabolism is transported to the brain and readily incorporated into histone acetylation.

[2] = system: differentiated CAD neurons; assay: Nuclear acetyl-CoA quantification (PicoProbe assay) in differentiated CAD neurons; format: cell-based, mouse; conditions: versus control, n=3
Description: (§1) CAD cells (Cath.-a-differentiated) were grown in Dulbecco's modified Eagle's medium (DMEM):Ham's F12 (1:1), supplemented with 2 mM glutamine, 1% penicillin/streptomycin, and 10% fetal bovine serum (FBS). To induce neuronal differentiation, sub-confluent CAD cell cultures (50-60%) were transferred to serum-free medium (DMEM:Ham's F12 (1:1) supplemented with 2 mM glutamine) and maintained in […] culture dishes for 5 days. […] For knockdown experiments, CAD cells were infected with lentiviral hairpin constructs (TRC collection) designed against ACL (#TRCN0000055217) or ACSS2 (#TRCN0000076124, #TRCN0000076125) in medium containing […] polybrene and 10% FBS for 24 hours. Cells then underwent selection in culture medium supplemented with 0.5 mg/mL puromycin for 5 days to obtain a stably infected population. Cell treatment with ACSS2i (1-(2,3-di(thiophen-2-yl)quinoxalin-6-yl)-3-(2-methoxyethyl)urea (DMSO)) was carried out for 24 hours at a final concentration of 20 μM (treatment with DMSO alone served as control).
To extract and quantify acetyl-CoA from differentiated CAD neurons, 4×10^6 cells were washed and incubated in lysis buffer for 30 min (10 mM Tris pH 8, 1 mM KCl, 1.5 mM MgCl2, 1 mM DTT). […] The PicoProbe assay was performed in 96-well clear-bottom plates, and the resulting fluorescence was quantified using the Synergy HTX Multi-Mode Microplate Reader (BioTek Instruments).

[3] = system: differentiated CAD neurons; assay: RNA-seq of differentiated CAD neurons treated with ACSS2i; format: cell-based, mouse
Description: as §1
To generate libraries for RNA-seq, poly(A)^+ RNA was extracted using the Dynabeads mRNA Direct kit (Ambion) according to the manufacturer's instructions. […] The quantity and quality of the libraries were assessed by BioAnalyzer (Agilent) and qPCR (Kapa Biosystems). The multiplexed libraries were pooled and sequenced on a single lane on the Illumina NextSeq 500 platform (50 bp, single-end reads). […] The aligned reads were mapped to genomic features using cufflinks-2.2.1, (-G parameter to quantify only known features), and iGenomes mml0 UCSC genomic transcript loci. The rRNA, […], and tRNA of the mouse genome were downloaded from the goldenPath UCSC FTP and were masked from the transcript quantification. After quantification, all data processing was done using python pandas library v.0.14.0. […] The statistical significance of the trend and reproducibility were assessed by taking the top 20% of genes by loss of expression in the knockdown and comparing the expression of these genes in inhibitor-treated cells to a random sample of genes outside this set (Mann-Whitney test).

[4] = system: primary hippocampal neurons; assay: Western blots of lysates from primary hippocampal neurons treated with ACSS2i; format: cell-based, mouse; conditions: day 7 neurons, ACSS2i 24 hours, western blot
Description: Cells were lysed in buffer containing 50 mM Tris pH 8.0, 0.5 mM EDTA, 150 mM NaCl, 1% NP40, 1% SDS, supplemented with protease inhibitor cocktail (Life Technologies, number 78446). For subcellular fractionation experiments, the cells were processed using the subcellular fractionation kit for cultured cells (Thermo Scientific, number 78840) according to the manufacturer's instructions. Protein concentration was determined by BCA protein assay (Life Technologies, number 23227), and equal amounts of protein were used in co-immunoprecipitation experiments or directly loaded onto polyacrylamide gels. The endogenous co-immunoprecipitation experiments were performed using antibody-conjugated protein A Dynabeads (Life Technologies) in buffer containing: 20 mM Tris, pH 8.0, 137 mM NaCl, 1 mM MgCl2, 1 mM CaCl2, 1% NP-40, 10% glycerol, with protease and phosphatase inhibitors, and 12.5 U/mL benzonase (Novagen, 70746). Proteins or co-immunoprecipitation eluates were loaded and separated on 4-12% Bis-Tris polyacrylamide gels (NuPAGE). After transfer to nitrocellulose membrane, 3% BSA in TBS supplemented with 0.1% Tween 20 (TBST) was used to block the membrane at room temperature for 1 hour. Primary antibodies were diluted in TBST, and incubated at 4° C. overnight. Primary antibodies are listed below. The membrane was washed three times with TBST, each for 10 min, followed by incubation with HRP-conjugated secondary antibodies at room temperature for 1 hour, in TBST. The membrane was washed again three times, and imaged with a Fujifilm LAS-4000 imager. Original gel blots are provided as FIGS. 14-16. […]

[5] = system: primary hippocampal neurons; assay: RNA-seq of acetate-treated primary hippocampal neurons with or without ACSS2i; format: cell-based, mouse
Description: All RNA-seq data were prepared for analysis as follows: NextSeq sequencing data was demultiplexed using native apps on BaseSpace. Demultiplexed FASTQs were aligned by RNA-STAR 2.5.2 to assembly mml0 (GRCm38). Aligned reads were mapped to genomic features using HTSeq 0.6.1. Quantification, library size adjustment, and differential gene expression analysis was done using DESeq2 and Wald's test (pairwise contrasts between acetate and DMSO-treatment in the inhibitor-treated or untreated cells, followed by a set overlap of differentially expressed genes). Gene list overlaps were tested for significance using the hypergeometric test.
Next, the functional relevance of alcohol-derived acetate for ACSS2-dependent histone acetylation in regulating hippocampal gene expression was examined (FIG. 23E, right). […] However, in line with the ChIP-seq data, this response was markedly blunted in ACSS2 KD mice. […] Because alcohol and acetate have pleiotropic effects on brain circuitry and metabolism, an in vitro assay was then developed to more closely model the direct effects of exogenous acetate on gene expression. […]

T1 sequence (Q9QXG4 whole entry): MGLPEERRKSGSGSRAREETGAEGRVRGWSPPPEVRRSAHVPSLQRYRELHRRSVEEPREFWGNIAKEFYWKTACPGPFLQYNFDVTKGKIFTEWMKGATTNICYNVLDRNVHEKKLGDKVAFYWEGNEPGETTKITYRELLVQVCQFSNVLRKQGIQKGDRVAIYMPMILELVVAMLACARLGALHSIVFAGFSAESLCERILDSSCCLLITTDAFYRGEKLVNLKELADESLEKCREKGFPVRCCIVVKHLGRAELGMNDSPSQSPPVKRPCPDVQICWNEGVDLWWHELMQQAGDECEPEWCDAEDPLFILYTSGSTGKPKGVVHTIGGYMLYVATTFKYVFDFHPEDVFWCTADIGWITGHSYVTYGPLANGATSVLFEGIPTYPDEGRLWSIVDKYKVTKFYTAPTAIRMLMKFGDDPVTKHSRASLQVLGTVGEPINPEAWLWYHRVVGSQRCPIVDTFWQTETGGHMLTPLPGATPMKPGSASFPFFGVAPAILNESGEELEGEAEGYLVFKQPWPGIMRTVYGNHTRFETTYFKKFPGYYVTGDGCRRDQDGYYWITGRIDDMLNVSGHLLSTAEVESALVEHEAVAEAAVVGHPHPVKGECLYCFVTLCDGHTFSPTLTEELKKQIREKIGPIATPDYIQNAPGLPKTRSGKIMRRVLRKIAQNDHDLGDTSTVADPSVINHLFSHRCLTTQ

CNC(=O)Nc1ccc2nc(-c3cccs3)c(-c3cccs3)nc2c1 [ADG-206, 1-(2,3-di(thiophen-2-yl)quinoxalin-6-yl)-3-methylurea]
incorporation of alcohol-derived heavy acetyl groups into histone acetylation [1]: prevents the incorporation of alcohol-derived heavy acetyl groups into histone acetylation

COCCNC(=O)Nc1ccc2nc(-c3cccs3)c(-c3cccs3)nc2c1 [ADG-205, 1-(2,3-di(thiophen-2-yl)quinoxalin-6-yl)-3-(2-methoxyethyl)urea]
incorporation of alcohol-derived heavy acetyl groups into histone acetylation [1]: prevents the incorporation of alcohol-derived heavy acetyl groups into histone acetylation

CCCCCNC(=O)Nc1ccc2nc(-c3cccs3)c(-c3cccs3)nc2c1 [ADG-204, 1-(2,3-di(thiophen-2-yl)quinoxalin-6-yl)-3-penlylurea]
incorporation of alcohol-derived heavy acetyl groups into histone acetylation [1]: prevents the incorporation of alcohol-derived heavy acetyl groups into histone acetylation

O=C(Nc1ccc2nc(-c3cccs3)c(-c3cccs3)nc2c1)NC12CC3CC(CC(C3)C1)C2 [ADG-207, 1-((1S,3s)-adamantan-1-yl)-3-(2,3-di(thiophen-2-yl)quinoxalin-6-yl)urea]
incorporation of alcohol-derived heavy acetyl groups into histone acetylation [1]: prevents the incorporation of alcohol-derived heavy acetyl groups into histone acetylation

COCCNC(=O)Nc1ccc2nc(-c3cccs3)c(-c3cccs3)nc2c1 [ACSS2i, 1-(2,3-di(thiophen-2-yl)quinoxalin-6-yl)-3-(2-methoxyethyl)urea]
Nuclear acetyl-CoA levels, mean Δ [2]: −0.25±0.05 | expression of differentiation-induced genes (RNA-seq) ([3]; 24-hour ACSS2i 20 μM vs DMSO): a reduction in differentiation-induced genes | expression of ND genes (genes linked to neuronal differentiation, 1,315 genes) ([3]; ACSS2i-treated vs DMSO-treated CAD neurons): markedly reduced | genes that showed reduced expression upon ACSS2i treatment ([3]; RNA-seq, 24-hour ACSS2i 20 μM vs DMSO): 299 genes | ACSS2 levels [4]: without lowering ACSS2 levels | histone acetylation [4]: reduced | neuronal marker expression [4]: reduced | regulation of acetate-induced genes by ACSS2i ([5]; in the absence of acetate): not regulated | acetate-induced genes that failed to become upregulated in the presence of ACSS2i ([5]; of 3613 acetate-induced genes, 10 mM acetate 24 hours): 2107 genes

— patent US12077527B2, “Compositions and methods for inhibiting ACSS2” (THE TRUSTEES OF THE UNIVERSITY OF PENNSYLVANIA, priority 2017, dated 2024)
